According to PMC6627993 (International Journal of Molecular Sciences, 2019):
Like-named read-outs stand apart in the source and are kept apart here.

How the values were obtained:
[1] = system: A2780; conditions: cited from earlier work
[2] = system: A2780; test: MTT cell viability assay
Method: (§4) The rate of cell-survival under the action of test substances was evaluated by an improved MTT assay as previously described [20, 31]. […] Incubation was ended after 72 h and cell survival was determined by addition of MTT (Serva, Heidelberg, Germany) solution (5 mg/mL in phosphate buffered saline). The formazan precipitate was dissolved in DMSO (VWR, Langenfeld, Germany). Absorbance was measured at 544 nm and 690 nm in a FLUOstar microplate-reader (BMG LabTech, Offenburg, Germany).

[3] = system: CaOV3; test: MTT cell viability assay
Method: as §4

[4] = system: HEY; test: MTT cell viability assay
Method: as §4

[5] = system: Kuramochi; test: MTT cell viability assay
Method: as §4

[6] = system: OVSAHO; test: MTT cell viability assay
Method: as §4

[7] = system: HDAC in A2780 cells; test: Whole-cell HDAC inhibition assay; format: cell-based, human; conditions: 18 h incubation
Method: (§1) The cellular HDAC assay was based on an assay published by Heltweg and Jung, Ciossek et al., and Bonfils et al. with minor modifications as described in [20]. Briefly, human cancer cell lines A2780, CaOV3, HEY, Kuramochi, and OVSAHO were seeded in 96-well tissue culture plates (Corning, Kaiserslautern, Germany) at a density of 15,000 c/w, 15,000 c/w, 17,500 c/w, 22,500 c/w, and 50,000 c/w in a total volume of 90 µL of culture medium. After 24 h, cells were incubated for 18 h with increasing concentrations of test compounds. The reaction was started by adding 10 µL of 3 mM Boc-Lys(Ac)-AMC (Bachem, Bubendorf, Switzerland) to reach final concentration of 0.3 mM [61]. The cells were incubated with the Boc-Lys(Ac)-AMC for 3 h under cell culture conditions. […] Fluorescence intensity was measured at excitation of 320 nm and emission of […] in a NOVOstar microplate reader (BMG LabTech, Offenburg, Germany).

[8] = system: HDAC in CaOV3 cells; test: Whole-cell HDAC inhibition assay; format: cell-based, human; conditions: 18 h incubation
Method: as §1

[9] = system: HDAC in HEY cells; test: Whole-cell HDAC inhibition assay; format: cell-based, human; conditions: 18 h incubation
Method: as §1

[10] = system: HDAC in Kuramochi cells; test: Whole-cell HDAC inhibition assay; format: cell-based, human; conditions: 18 h incubation
Method: as §1

[11] = system: HDAC in OVSAHO cells; test: Whole-cell HDAC inhibition assay; format: cell-based, human; conditions: 18 h incubation
Method: as §1

[12] = system: A2780; test: Synergism study (Chou-Talalay, MTT), 48 h HDACi + 72 h HDACi and cisplatin; format: cell-based, human
Method: (§2) Concentrations were chosen to achieve a fraction affected (fa; level of cell viability inhibition) between 0.2 and 0.9 in the Chou-Talalay-analysis.
(§3) After 72 h, the cytotoxic effect was determined with a MTT cell viability assay. Calcusyn software 2.1 (Biosoft, Cambridge, UK) was used to calculate the combination index (CI) as a quantitative measure of the degree of drug interaction.

[13] = system: HEY; test: as above; format: cell-based, human
Method: as §2, §3

[14] = system: OVSAHO; test: as above; format: cell-based, human
Method: as §2, §3

[15] = system: A2780, CaOV3, HEY, Kuramochi, OVSAHO; test: Synergism study (Chou-Talalay, MTT), all cell lines; format: cell-based, human; conditions: 48 h + 72 h; CI < 0.9 indicates synergism
Method: as §2, §3

[16] = system: HEY; test: Measurement of apoptotic nuclei (subG1, flow cytometry); format: cell-based, human; conditions: HDACi 48 h, then cisplatin IC50 24 h
Method: Next, we investigated if the observed synergistic cytotoxic effect was mediated via apoptosis-induction. […] Then, cells were subjected to flow-cytometry-based subG1 analysis.
A2780, CaOV3, HEY, Kuramochi, and OVSAHO cells were seeded at a density of 40,000 c/w, 50,000 c/w, 40,000 c/w, 60,000 c/w, and 100,000 c/w in 24-well plates (Sarstedt, Nürnbrecht, Germany). Cells were treated with entinostat, panobinostat, or nexturastat A and cisplatin alone or in combination for the indicated time points. Supernatant was removed after a centrifugation step and the cells were lysed in 500 µL hypotonic lysis buffer (0.1% sodium citrate, 0.1% Triton X-100, 100 µg/mL PI) at 4 °C in the dark overnight. The percentage of apoptotic nuclei with DNA content in sub-G1 was analyzed by flow cytometry using the CyFlow instrument (Partec, Norderstedt, Germany).

[17] = read-out: IC50 of cisplatin, cisplatin alone, 72 h
[18] = read-out: IC50 (HDAC inhibitory activity)
[19] = cisplatin 1.00 µM + panobinostat 40 nM
[20] = cisplatin 2.00 µM + panobinostat 40 nM
[21] = cisplatin 4.00 µM + panobinostat 40 nM

SMILES: N.N.[Cl][Pt][Cl] [Cisplatin, cis-diamminedichloridoplatinum(II)]
- IC50-values for cisplatin in previous studies [1]: one-digit micromolar range
- IC50 ([2]; 72 h incubation): 11 µM
- pIC50 ± SEM ([2]; 72 h incubation): 4.96 ± 0.01
- IC50 [2, 17]: 11 µM
- IC50 ([3]; 72 h incubation): 1.44 µM
- pIC50 ± SEM ([3]; 72 h incubation): 5.84 ± 0.01
- IC50 [3, 17]: 1.44 µM
- IC50 ([4]; 72 h incubation): 5.25 µM
- pIC50 ± SEM ([4]; 72 h incubation): 5.28 ± 0.01
- IC50 [4, 17]: 5.25 µM
- IC50 ([5]; 72 h incubation): 4.68 µM
- pIC50 ± SEM ([5]; 72 h incubation): 5.33 ± 0.02
- IC50 [5, 17]: 4.68 µM
- IC50 ([6]; 72 h incubation): 4.83 µM
- pIC50 ± SEM ([6]; 72 h incubation): 5.32 ± 0.01
- IC50 [6, 17]: 4.83 µM

SMILES: Cc1[nH]c2ccccc2c1CCNCc1ccc(/C=C/C(=O)NO)cc1 [Panobinostat, panobinostat]
- pIC50 ± SEM (HDAC inhibitory activity) [7]: 7.91 ± 0.06
- IC50 [7, 18]: 0.0121 µM
- pIC50 ± SEM (HDAC inhibitory activity) [8]: 8.10 ± 0.05
- IC50 [8, 18]: 0.00788 µM
- pIC50 ± SEM (HDAC inhibitory activity) [9]: 7.87 ± 0.03
- IC50 [9, 18]: 0.0136 µM
- pIC50 ± SEM (HDAC inhibitory activity) [10]: 8.01 ± 0.07
- IC50 [10, 18]: 0.00987 µM
- pIC50 ± SEM (HDAC inhibitory activity) [11]: 7.64 ± 0.04
- IC50 [11, 18]: 0.0231 µM
- combination index (CI) ([12]; cisplatin 0.50 µM + panobinostat 10 nM): 0.21
- combination index (CI) ([12]; cisplatin 0.50 µM + panobinostat 20 nM): 0.10
- combination index (CI) ([12]; cisplatin 0.50 µM + panobinostat 30 nM): 0.15
- combination index (CI) ([12]; cisplatin 0.50 µM + panobinostat 40 nM): 0.15
- combination index (CI) ([12]; cisplatin 1.00 µM + panobinostat 10 nM): 0.25
- combination index (CI) ([12]; cisplatin 1.00 µM + panobinostat 20 nM): 0.12
- combination index (CI) ([12]; cisplatin 1.00 µM + panobinostat 30 nM): 0.17
- combination index (CI) [12, 19]: 0.18
- combination index (CI) ([12]; cisplatin 2.00 µM + panobinostat 10 nM): 0.35
- combination index (CI) ([12]; cisplatin 2.00 µM + panobinostat 20 nM): 0.16
- combination index (CI) ([12]; cisplatin 2.00 µM + panobinostat 30 nM): 0.22
- combination index (CI) [12, 20]: 0.21
- combination index (CI) ([12]; cisplatin 4.00 µM + panobinostat 10 nM): 0.35
- combination index (CI) ([12]; cisplatin 4.00 µM + panobinostat 20 nM): 0.21
- combination index (CI) ([12]; cisplatin 4.00 µM + panobinostat 30 nM): 0.27
- combination index (CI) [12, 21]: 0.25
- combination index (CI) ([12]; cisplatin 6.00 µM + panobinostat 10 nM): 0.29
- combination index (CI) ([12]; cisplatin 6.00 µM + panobinostat 20 nM): 0.23
- combination index (CI) ([12]; cisplatin 6.00 µM + panobinostat 30 nM): 0.26
- combination index (CI) ([12]; cisplatin 6.00 µM + panobinostat 40 nM): 0.26
- combination index (CI) ([13]; cisplatin 0.32 µM + panobinostat 5.0 nM): * (* means fraction affected is less than 0.20)
- combination index (CI) ([13]; cisplatin 0.32 µM + panobinostat 10.0 nM): * (* means fraction affected is less than 0.20)
- combination index (CI) ([13]; cisplatin 0.32 µM + panobinostat 20.0 nM): 0.14
- combination index (CI) ([13]; cisplatin 0.32 µM + panobinostat […]): 0.19
- combination index (CI) ([13]; cisplatin 0.50 µM + panobinostat 5.0 nM): * (* means fraction affected is less than 0.20)
- combination index (CI) ([13]; cisplatin 0.50 µM + panobinostat 10.0 nM): * (* means fraction affected is less than 0.20)
- combination index (CI) ([13]; cisplatin 0.50 µM + panobinostat 20.0 nM): 0.15
- combination index (CI) ([13]; cisplatin 0.50 µM + panobinostat […]): 0.21
- combination index (CI) ([13]; cisplatin 1.00 µM + panobinostat 5.0 nM): * (* means fraction affected is less than 0.20)
- combination index (CI) ([13]; cisplatin 1.00 µM + panobinostat 10.0 nM): * (* means fraction affected is less than 0.20)
- combination index (CI) ([13]; cisplatin 1.00 µM + panobinostat 20.0 nM): 0.16
- combination index (CI) ([13]; cisplatin 1.00 µM + panobinostat […]): 0.25
- combination index (CI) ([13]; cisplatin 2.00 µM + panobinostat 5.0 nM): * (* means fraction affected is less than 0.20)
- combination index (CI) ([13]; cisplatin 2.00 µM + panobinostat 10.0 nM): 0.41
- combination index (CI) ([13]; cisplatin 2.00 µM + panobinostat 20.0 nM): 0.17
- combination index (CI) ([13]; cisplatin 2.00 µM + panobinostat […]): 0.25
- combination index (CI) ([13]; cisplatin 4.00 µM + panobinostat 5.0 nM): 0.51
- combination index (CI) ([13]; cisplatin 4.00 µM + panobinostat 10.0 nM): 0.33
- combination index (CI) ([13]; cisplatin 4.00 µM + panobinostat 20.0 nM): 0.20
- combination index (CI) ([13]; cisplatin 4.00 µM + panobinostat […]): 0.28
- combination index (CI) [14, 19]: 0.36
- combination index (CI) ([14]; cisplatin 1.00 µM + panobinostat 50 nM): 0.33
- combination index (CI) ([14]; cisplatin 1.00 µM + panobinostat 60 nM): 0.27
- combination index (CI) ([14]; cisplatin 1.00 µM + panobinostat 70 nM): 0.26
- combination index (CI) [14, 20]: 0.25
- combination index (CI) ([14]; cisplatin 2.00 µM + panobinostat 50 nM): 0.23
- combination index (CI) ([14]; cisplatin 2.00 µM + panobinostat 60 nM): 0.21
- combination index (CI) ([14]; cisplatin 2.00 µM + panobinostat 70 nM): 0.21
- combination index (CI) ([14]; cisplatin 3.00 µM + panobinostat 40 nM): 0.24
- combination index (CI) ([14]; cisplatin 3.00 µM + panobinostat 50 nM): 0.22
- combination index (CI) ([14]; cisplatin 3.00 µM + panobinostat 60 nM): 0.21
- combination index (CI) ([14]; cisplatin 3.00 µM + panobinostat 70 nM): 0.21
- combination index (CI) [14, 21]: 0.23
- combination index (CI) ([14]; cisplatin 4.00 µM + panobinostat 50 nM): 0.22
- combination index (CI) ([14]; cisplatin 4.00 µM + panobinostat 60 nM): 0.21
- combination index (CI) ([14]; cisplatin 4.00 µM + panobinostat 70 nM): 0.21
- combination index (CI) ([14]; cisplatin 5.00 µM + panobinostat 40 nM): 0.24
- combination index (CI) ([14]; cisplatin 5.00 µM + panobinostat 50 nM): 0.23
- combination index (CI) ([14]; cisplatin 5.00 µM + panobinostat 60 nM): 0.22
- combination index (CI) ([14]; cisplatin 5.00 µM + panobinostat 70 nM): 0.22
- CI-values (interaction with cisplatin) [15]: lower than 0.9
- apoptosis induction, combination with cisplatin versus cisplatin or HDACi alone [16]: no difference in apoptosis induction
